Experimental data taken from patent publication US12290575B2, “Fluorescent compound comprising a fluorophore conjugated to a pH-triggered polypeptide” (UNIVERSITY OF RHODE ISLAND BOARD OF TRUSTEES, priority 2016, dated 2025).
Where a SMILES comes first, the peptide text is derived from it. Where no end group is shown, it is not given here. The star is where a group is joined. X1 = CC1(C)C(/C=C/C=C/C=C/C=C2/N(CCCCCC(=O)NCCN3C(=O)CC(*)C3=O)c3ccc4ccccc4c3C2(C)C)=[N+](CCCCS(=O)(=O)[O-])c2ccc3ccccc3c21; ICG maleimide = indocyanine green maleimide

Tests used:
[1] = residue X in AcWL-X-LL, relative to virtual glycine; Arg and Lys from pH 1 data; cited from earlier work
[2] = Fluorescence imaging of blood flow in mice (ear, leg, blood samples); format: in vivo, nude mice; details: for imaging of blood vessels (ear, leg): 100 μL of 40 μM IV, 5, 30, 60, 90, 120 min; for fluorescent signal in blood samples: blood withdrawn 5-120 min after IV
Procedure: Adult female nude mice (Envigo), 20 g in body mass were used in the study. Fluorescent constructs were given as a single tail vein injection in amounts of 100 μL of 40 μM in PBS. Imaging of mouse ear and leg was performed at 5, 30, 60, 90 and 120 min after construct administration. At 5, 30, 60, 90 and 120 min after construct administration 5 μL of blood was withdrawn from tail (and mixed with 5 μL of anticoagulating solution to preserve blood) while animal was under anesthesia. Mice were euthanized immediately after last imaging point (120 min). Blood collected from all animals was deposited on the glass slide, dried and imaged. Imaging was performed using Novadaq clinical imaging instrument. Autofluorescence was established by imaging mouse with no injection of fluorescent constructs (the level of autofluorescence signal was insignificant compared to the signal after the constructs administration).

[3] = current use; cited from earlier work
[4] = cited from earlier work
[5] = high dose of 5 mg/kg of body weight; cited from earlier work
4T1 tumors = assay: NIR fluorescence imaging of 4T1 tumors in mice after IV or IP injection; format: in vivo, BALB/cAnNHsd mice; details: 16 h
Procedure: Adult female nude mice and female BALB/cAnNHsd mice (Envigo), 20-25 g in body mass were used in the study. Mouse mammary cancer 4T1 cells were subcutaneously implanted in the right flank (8×10^5 cells/0.1 mL/flank) of adult female BALB/cAnNHsd mice. Rat bladder cancer AY27 cells were subcutaneously implanted in the right flank (8×10^5 cells/0.1 mL/flank) of adult female nude mice. When tumors reached approximately 5-6 mm in diameter, single tail vein injection or single intraperitoneal injection of fluorophore-pHLIP® solutions in PBS were performed. Fluorescent constructs were used in amounts of 100 μL of 40 μM or 100 μL of 20 μM, or 100 μL of 10 μM, or 100 μL of 5 μM. Imaging of mouse was performed at 16 hours after constructs administration. Skin was removed from the tumor site just before imaging while animal was under gas anesthesia, and mice were euthanized immediately after imaging. Tumor, kidney and liver were harvested, imaged and used for histopathological analysis. Imaging was performed using Stryker clinical imaging instrument. Autofluorescence was established by imaging mouse with no injection of fluorescent constructs (the level of autofluorescence signal was insignificant compared to the signal after the constructs administration).

[6] = system: urothelial carcinoma in human bladder specimens; assay: Ex vivo NIR fluorescence imaging of human bladder specimens after instillation
Procedure: 22 urothelial carcinoma patients that were scheduled for radical cystectomy were selected over a twelve month period. After radical cystectomy, bladder specimens were immediately removed and irrigated 3 times for 5 min via catheter with non-buffered saline and instilled and incubated with 80 ml of 8 μM or 32.8 μg/ml (unless otherwise is stated, see notes to Table 8) of ICG-Var3 construct or ICG-Cys in PBS pH 7.4 containing 10 mM D-glucose for 60 minutes. Then, the unbound constructs were removed by rinsing with 80 ml of saline solution 3-5 times, the bladder was irrigated thoroughly with buffered saline and opened using a Y incision on the anterior wall. Using a da Vinci Si near-infrared fluorescence imaging system (Firefly®), ex vivo fluorescent and white light imaging of the entire bladder and its parts was performed. The fluorescent spots were marked and standard pathological analysis was carried out to explore the correlation between appearance of fluorescent signal and cancer lesions.
The specimen was sectioned and submitted after 24 hour fixation in 10% phosphate-buffered formalin according to the standard institutional grossing manual, with emphasis on the marked areas of the bladder. The sections were processed for routine histology into paraffin-embedded blocks. […]
Statistical parameters were calculated according to the following equations: […]

In the case of NC(=O)C[C@H](N)C(=O)O [Asn, Asparagine], the “ΔGX^cor (solvation free energy of the side chain)” value [1] is given as “+0.30 kcal/mol”.
In the case of “IR800-WT pHLIP®: IR800 maleimide conjugated to the Cys of WT pHLIP® (SEQ ID NO: 444) (AC(IR800 maleimide)EQNPIYWARYADWLFTTPLLLLDLALLVDADEGT)”, the “imaging of blood vessels (ear, leg)” value [2] is reported as “better in imaging of blood vessels, however not nearly as good as ICG-WT and ICG-Var3 pHLIP®s”.
For “ICG-Hum pHLIP®: ICG maleimide conjugated to the Cys of Hum pHLIP® GCDNNEGFFATLGGEIPLWSDVVLAIEG (SEQ ID NO: 446) (GC(ICG maleimide)DNNEGFFATLGGEIPLWSDVVLAIEG)”, the “imaging of blood vessels (ear, leg)” value [2] was “slow in reaching the best imagibility condition and was fast in decaying”.
For CC1(C)C(/C=C/C=C/C=C/C=C2\N(CCCCS(=O)(=O)[O-])c3ccc4ccccc4c3C2(C)C)=[N+](CCCCS(=O)(=O)[O-])c2ccc3ccccc3c21.[Na+] [ICG, indocyanine green], the “imaging time used for free ICG” value [3] is listed as 2 to 5 min, the blood clearance ([4]; half lifetime is just few minutes) is listed as “fast blood clearance” and the metabolites ([4]; in vivo) is listed as “no known metabolites”. For the same molecule, the “time after which it binds to the regional lymph nodes” value ([4]; injected outside blood vessels) was 1 to 2 h, the “time of appearing unconjugated in the bile after injection” value ([4]; intravenous injection, depends on liver vascularization and function) was “about 8 min” and the toxic effects [5] was “No significant toxic effects”.
In the case of CC[C@H](C)[C@H](NC(=O)[C@@H]1CCCN1C(=O)[C@H](CC(N)=O)NC(=O)[C@H](CCC(N)=O)NC(=O)[C@H](CCC(=O)O)NC(=O)[C@H](CSC1CC(=O)N(CCNC(=O)CCCCCN2/C(=C/C=C/C=C/C=C/C3=[N+](CCCCS(=O)(=O)[O-])c4ccc5ccccc5c4C3(C)C)C(C)(C)c3c2ccc2ccccc32)C1=O)NC(=O)[C@H](C)N)C(=O)N[C@@H](Cc1ccc(O)cc1)C(=O)N[C@@H](Cc1c[nH]c2ccccc12)C(=O)N[C@@H](C)C(=O)N[C@@H](CCCNC(=N)N)C(=O)N[C@@H](Cc1ccc(O)cc1)C(=O)N[C@@H](C)C(=O)N[C@@H](CC(=O)O)C(=O)N[C@@H](Cc1c[nH]c2ccccc12)C(=O)N[C@@H](CC(C)C)C(=O)N[C@@H](Cc1ccccc1)C(=O)N[C@H](C(=O)N[C@H](C(=O)N1CCC[C@H]1C(=O)N[C@@H](CC(C)C)C(=O)N[C@@H](CC(C)C)C(=O)N[C@@H](CC(C)C)C(=O)N[C@@H](CC(C)C)C(=O)N[C@@H](CC(=O)O)C(=O)N[C@@H](CC(C)C)C(=O)N[C@@H](C)C(=O)N[C@@H](CC(C)C)C(=O)N[C@@H](CC(C)C)C(=O)N[C@H](C(=O)N[C@@H](CC(=O)O)C(=O)N[C@@H](C)C(=O)N[C@@H](CC(=O)O)C(=O)N[C@@H](CCC(=O)O)C(=O)NCC(=O)N[C@H](C(=O)O)[C@@H](C)O)C(C)C)[C@@H](C)O)[C@@H](C)O (stereo partly drawn) [ICG-WT pHLIP®], the “fluorescent signal in blood samples” value [2] is reported as “persistence of strong fluorescent signal within 2 hours”.
For C[C@H](N)C(=O)O [Ala, Alanine], the “ΔGX^cor (solvation free energy of the side chain)” value [1] is given as “+0.65 kcal/mol”.
In the case of CC[C@H](C)[C@H](NC(=O)[C@@H]1CCCN1C(=O)[C@H](CC(N)=O)NC(=O)[C@H](CCC(N)=O)NC(=O)[C@H](CCC(=O)O)NC(=O)[C@H](CSC1CC(=O)N(CCNC(=O)CCCCCN2/C(=C/C=C/C=C/C=C/C3=[N+](CCCCS(=O)(=O)[O-])c4ccc5ccccc5c4C3(C)C)C(C)(C)c3c2ccc2ccccc32)C1=O)NC(=O)[C@H](C)N)C(=O)N[C@@H](Cc1ccc(O)cc1)C(=O)N[C@@H](Cc1c[nH]c2ccccc12)C(=O)N[C@@H](C)C(=O)N[C@@H](CCCNC(=N)N)C(=O)N[C@@H](Cc1ccc(O)cc1)C(=O)N[C@@H](C)C(=O)N[C@@H](CC(N)=O)C(=O)N[C@@H](Cc1c[nH]c2ccccc12)C(=O)N[C@@H](CC(C)C)C(=O)N[C@@H](Cc1ccccc1)C(=O)N[C@H](C(=O)N[C@H](C(=O)N1CCC[C@H]1C(=O)N[C@@H](CC(C)C)C(=O)N[C@@H](CC(C)C)C(=O)N[C@@H](CC(C)C)C(=O)N[C@@H](CC(C)C)C(=O)N[C@@H](CC(N)=O)C(=O)N[C@@H](CC(C)C)C(=O)N[C@@H](C)C(=O)N[C@@H](CC(C)C)C(=O)N[C@@H](CC(C)C)C(=O)N[C@H](C(=O)N[C@@H](CC(=O)O)C(=O)N[C@@H](C)C(=O)N[C@@H](CC(=O)O)C(=O)N[C@@H](CCC(=O)O)C(=O)NCC(=O)N[C@H](C(=O)O)[C@@H](C)O)C(C)C)[C@@H](C)O)[C@@H](C)O (stereo partly drawn) [ICG-NpHLIP®] (H-AC(X1)EQNPIYWARYANWLFTTPLLLLNLALLVDADEGT-OH), the “fluorescent signal in blood samples” value [2] is reported as “significantly reduced signal”.
In the case of C[C@@H](O)[C@H](N)C(=O)O [Thr, Threonine], the “ΔGX^cor (solvation free energy of the side chain)” value [1] is listed as “+0.90 kcal/mol”.
In the case of N[C@@H](CO)C(=O)O [Ser, Serine], the “ΔGX^cor (solvation free energy of the side chain)” value [1] is given as “+0.69 kcal/mol”.
In the case of CC(C)C[C@H](NC(=O)[C@H](Cc1ccc(O)cc1)NC(=O)[C@H](C)NC(=O)[C@H](CCCNC(=N)N)NC(=O)[C@H](Cc1c[nH]c2ccccc12)NC(=O)[C@@H]1CCCN1C(=O)[C@H](CC(N)=O)NC(=O)[C@H](CCC(N)=O)NC(=O)[C@H](CC(=O)O)NC(=O)[C@H](CC(=O)O)NC(=O)[C@H](CSC1CC(=O)N(CCNC(=O)CCCCCN2/C(=C/C=C/C=C/C=C/C3=[N+](CCCCS(=O)(=O)[O-])c4ccc5ccccc5c4C3(C)C)C(C)(C)c3c2ccc2ccccc32)C1=O)NC(=O)[C@H](C)N)C(=O)N[C@@H](CC(=O)O)C(=O)N[C@@H](CC(C)C)C(=O)N[C@@H](CC(C)C)C(=O)N[C@@H](Cc1ccccc1)C(=O)N1CCC[C@H]1C(=O)N[C@H](C(=O)N[C@@H](CC(=O)O)C(=O)N[C@H](C(=O)N[C@@H](CC(C)C)C(=O)N[C@@H](CC(C)C)C(=O)N[C@@H](CC(C)C)C(=O)N[C@@H](CC(=O)O)C(=O)N[C@@H](CC(C)C)C(=O)N[C@@H](CC(C)C)C(=O)N[C@@H](Cc1c[nH]c2ccccc12)C(=O)N[C@@H](C)C(=O)O)[C@@H](C)O)[C@@H](C)O (stereo partly drawn) [ICG-Var3] (H-AC(X1)DDQNPWRAYLDLLFPTDTLLLDLLWA-OH), the “fluorescent signal in tumor relative to kidney and liver” value (4T1 tumors) is reported as “signal in tumor was higher than in kidney and similar or slightly less than in liver”, the “fluorescent signal in blood samples” value [2] is reported as “persistence of strong fluorescent signal within 2 hours” and the “adverse morphological findings in specimens after incubation” value [6] is reported as “did not show any adverse morphological findings”.
In the case of N=C(N)NCCC[C@H](N)C(=O)O [Arg, Arginine], the “ΔGX^cor (solvation free energy of the side chain)” value [1] is given as -2.76 kJ/mol.
